From patent US20220168431A1, “METHODS OF TREATING CANCER USING TRIMETAZIDINE-BASED COMPOUNDS” (IMBRIA PHARMACEUTICALS, INC., priority 2019, published 2022)

Assays:
[1] = target: Transporter, Norepinephrine (NET) (Homo sapiens, UniProt P23975); assay type: binding; conditions: 10 μM CV-8814
Monoamine Oxidase MAO-B = Monoamine Oxidase MAO-B (Homo sapiens, UniProt P27338); assay type: biochemical; conditions: 10 μM CV-8814
Melanocortin MC4 = Melanocortin MC4 (Homo sapiens, UniProt P32245); assay type: binding; conditions: 10 μM CV-8814
[2] = target: Serotonin (5-Hydroxytryptamine) 5-HT2A (Homo sapiens, UniProt P28223); assay type: binding; conditions: 10 μM CV-8814
Adrenergic α2B = Adrenergic α2B (Homo sapiens, UniProt P18089); assay type: binding; conditions: 10 μM CV-8814
[3] = target: Transporter, Dopamine (DAT) (Homo sapiens, UniProt Q01959); assay type: binding; conditions: 10 μM CV-8814
Chain of Transporter, Dopamine (DAT) (Q01959 whole entry): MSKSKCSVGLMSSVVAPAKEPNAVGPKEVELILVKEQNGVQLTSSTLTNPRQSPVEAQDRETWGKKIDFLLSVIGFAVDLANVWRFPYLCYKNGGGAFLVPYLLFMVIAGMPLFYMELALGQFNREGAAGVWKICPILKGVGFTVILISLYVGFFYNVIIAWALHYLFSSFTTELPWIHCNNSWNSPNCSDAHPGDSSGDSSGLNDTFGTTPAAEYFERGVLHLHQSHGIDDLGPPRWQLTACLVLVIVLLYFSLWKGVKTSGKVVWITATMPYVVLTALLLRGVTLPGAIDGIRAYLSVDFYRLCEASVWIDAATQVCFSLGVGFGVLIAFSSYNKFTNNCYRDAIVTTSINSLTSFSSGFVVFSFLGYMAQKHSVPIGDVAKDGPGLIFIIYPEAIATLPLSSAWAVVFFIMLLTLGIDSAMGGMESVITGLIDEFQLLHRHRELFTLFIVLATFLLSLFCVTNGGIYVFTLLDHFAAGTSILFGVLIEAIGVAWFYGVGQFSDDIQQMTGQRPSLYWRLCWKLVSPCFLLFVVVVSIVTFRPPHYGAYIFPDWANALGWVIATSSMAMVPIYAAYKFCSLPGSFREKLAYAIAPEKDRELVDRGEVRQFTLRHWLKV

Muscarinic M1 = Muscarinic M1 (Homo sapiens, UniProt P11229); assay type: binding; conditions: 10 μM CV-8814
Progesterone PR-B = Progesterone PR-B (Homo sapiens, UniProt P06401); assay type: binding; conditions: 10 μM CV-8814
[4] = target: Glutamate, Metabotropic, mGlu5 (Homo sapiens, UniProt P41594); assay type: binding; conditions: 10 μM CV-8814
Chain of Glutamate, Metabotropic, mGlu5 (P41594 21-1212): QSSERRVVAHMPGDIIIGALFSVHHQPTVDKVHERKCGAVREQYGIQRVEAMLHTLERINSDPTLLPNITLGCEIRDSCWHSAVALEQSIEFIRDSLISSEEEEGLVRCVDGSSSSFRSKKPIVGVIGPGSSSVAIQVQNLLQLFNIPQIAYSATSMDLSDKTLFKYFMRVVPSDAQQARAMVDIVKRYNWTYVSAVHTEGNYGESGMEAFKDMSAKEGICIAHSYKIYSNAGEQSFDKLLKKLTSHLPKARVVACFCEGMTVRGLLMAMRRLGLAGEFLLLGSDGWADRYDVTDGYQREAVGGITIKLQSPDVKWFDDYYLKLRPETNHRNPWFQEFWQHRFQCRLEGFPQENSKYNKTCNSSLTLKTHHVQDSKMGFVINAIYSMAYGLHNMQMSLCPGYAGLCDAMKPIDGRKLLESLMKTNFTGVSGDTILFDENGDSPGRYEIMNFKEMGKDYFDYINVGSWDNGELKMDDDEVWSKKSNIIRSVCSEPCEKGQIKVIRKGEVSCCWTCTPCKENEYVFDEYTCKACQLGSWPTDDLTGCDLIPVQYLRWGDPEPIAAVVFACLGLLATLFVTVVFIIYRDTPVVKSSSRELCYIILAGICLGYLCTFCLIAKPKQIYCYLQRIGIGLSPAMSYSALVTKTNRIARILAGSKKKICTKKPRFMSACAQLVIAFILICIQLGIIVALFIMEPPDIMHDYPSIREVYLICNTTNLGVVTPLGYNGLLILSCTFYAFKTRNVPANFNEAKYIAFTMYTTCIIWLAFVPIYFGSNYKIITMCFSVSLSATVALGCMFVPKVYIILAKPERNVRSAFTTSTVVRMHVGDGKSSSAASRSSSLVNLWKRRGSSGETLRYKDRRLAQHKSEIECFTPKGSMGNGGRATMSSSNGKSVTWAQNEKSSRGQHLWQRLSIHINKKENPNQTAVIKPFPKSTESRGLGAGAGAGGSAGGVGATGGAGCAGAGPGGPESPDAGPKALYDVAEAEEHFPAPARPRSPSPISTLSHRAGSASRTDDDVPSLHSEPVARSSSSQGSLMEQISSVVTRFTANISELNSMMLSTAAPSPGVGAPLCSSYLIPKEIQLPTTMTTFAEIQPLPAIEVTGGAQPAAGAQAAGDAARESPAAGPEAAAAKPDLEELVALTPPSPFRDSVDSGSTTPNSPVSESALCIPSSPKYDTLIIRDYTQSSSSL

Melanocortin MC1 = Melanocortin MC1 (Homo sapiens, UniProt Q01726); assay type: binding; conditions: 10 μM CV-8814
[5] = target: Protein Tyrosine Kinase, LCK (Homo sapiens, UniProt P06239); assay type: biochemical; conditions: 10 μM CV-8814
Chemokine CCR1 = Chemokine CCR1 (Homo sapiens, UniProt P32246); assay type: binding; conditions: 10 μM CV-8814
[6] = target: Serotonin (5-Hydroxytryptamine) 5-HT1B (Homo sapiens, UniProt P28222); assay type: binding; conditions: 10 μM CV-8814
Opiate κ (OP2, KOP) = Opiate κ (OP2, KOP) (Homo sapiens, UniProt P41145); assay type: binding; conditions: 10 μM CV-8814
Chain of Opiate κ (OP2, KOP) (P41145 whole entry): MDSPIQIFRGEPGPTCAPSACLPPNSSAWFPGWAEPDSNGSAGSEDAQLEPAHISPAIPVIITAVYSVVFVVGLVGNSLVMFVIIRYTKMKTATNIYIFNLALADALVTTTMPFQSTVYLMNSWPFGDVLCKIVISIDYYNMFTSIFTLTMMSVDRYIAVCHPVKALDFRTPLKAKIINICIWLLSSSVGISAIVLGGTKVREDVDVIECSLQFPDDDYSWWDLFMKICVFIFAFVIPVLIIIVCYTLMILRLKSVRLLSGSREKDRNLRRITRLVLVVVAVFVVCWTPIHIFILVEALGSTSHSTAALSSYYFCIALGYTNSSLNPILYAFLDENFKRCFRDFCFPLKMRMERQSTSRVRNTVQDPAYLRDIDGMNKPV

Dopamine D2L = Dopamine D2L (Homo sapiens, UniProt P14416); assay type: binding; conditions: 10 μM CV-8814
Cannabinoid CB2 = Cannabinoid CB2 (Homo sapiens, UniProt P34972); assay type: binding; conditions: 10 μM CV-8814
Glucocorticoid = Glucocorticoid (Homo sapiens, UniProt P04150); assay type: binding; conditions: 10 μM CV-8814
[7] = target: Peptidase, CTSG (Cathepsin G) (Homo sapiens, UniProt P08311); assay type: biochemical; conditions: 10 μM CV-8814
Adenosine A2A = Adenosine A2A (Homo sapiens, UniProt P29274); assay type: binding; conditions: 10 μM CV-8814
Adrenergic α1D = Adrenergic α1D (Homo sapiens, UniProt P25100); assay type: binding; conditions: 10 μM CV-8814
Chain of Adrenergic α1D (P25100 whole entry): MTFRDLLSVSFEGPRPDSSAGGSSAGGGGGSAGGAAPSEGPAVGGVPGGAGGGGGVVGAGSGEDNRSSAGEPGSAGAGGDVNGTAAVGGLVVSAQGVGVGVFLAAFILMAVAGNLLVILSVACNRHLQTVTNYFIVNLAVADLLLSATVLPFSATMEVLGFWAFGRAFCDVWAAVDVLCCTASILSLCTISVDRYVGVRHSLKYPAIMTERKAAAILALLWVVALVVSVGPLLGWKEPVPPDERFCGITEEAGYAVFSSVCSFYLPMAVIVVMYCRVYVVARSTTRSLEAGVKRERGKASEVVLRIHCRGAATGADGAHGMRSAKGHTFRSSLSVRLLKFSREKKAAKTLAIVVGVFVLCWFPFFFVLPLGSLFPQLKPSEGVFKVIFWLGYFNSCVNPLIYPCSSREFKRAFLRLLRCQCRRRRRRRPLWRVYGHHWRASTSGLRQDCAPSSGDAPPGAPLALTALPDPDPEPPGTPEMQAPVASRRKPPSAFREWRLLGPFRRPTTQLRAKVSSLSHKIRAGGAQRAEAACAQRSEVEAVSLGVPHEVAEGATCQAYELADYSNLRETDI

[8] = target: Nicotinic Acetylcholine α1, Bungarotoxin (Homo sapiens, UniProt P02708+P07510+Q07001); test: biochemical; assay type: binding
[9] = target: Cholecystokinin CCK1 (CCKA) (Homo sapiens, UniProt P32238); assay type: binding; conditions: 10 μM CV-8814
[10] = target: Peptidase, Angiotensin Converting Enzyme (Oryctolagus cuniculus, UniProt P12822); assay type: biochemical, rabbit; conditions: 10 μM CV-8814
[11] = target: Cholinesterase, Acetyl, ACES (Homo sapiens, UniProt P22303); assay type: biochemical; conditions: 10 μM CV-8814
Cyclooxygenase COX-2 = Cyclooxygenase COX-2 (Homo sapiens, UniProt P35354); assay type: biochemical; conditions: 10 μM CV-8814
Chain of Cyclooxygenase COX-2 (P35354 18-604): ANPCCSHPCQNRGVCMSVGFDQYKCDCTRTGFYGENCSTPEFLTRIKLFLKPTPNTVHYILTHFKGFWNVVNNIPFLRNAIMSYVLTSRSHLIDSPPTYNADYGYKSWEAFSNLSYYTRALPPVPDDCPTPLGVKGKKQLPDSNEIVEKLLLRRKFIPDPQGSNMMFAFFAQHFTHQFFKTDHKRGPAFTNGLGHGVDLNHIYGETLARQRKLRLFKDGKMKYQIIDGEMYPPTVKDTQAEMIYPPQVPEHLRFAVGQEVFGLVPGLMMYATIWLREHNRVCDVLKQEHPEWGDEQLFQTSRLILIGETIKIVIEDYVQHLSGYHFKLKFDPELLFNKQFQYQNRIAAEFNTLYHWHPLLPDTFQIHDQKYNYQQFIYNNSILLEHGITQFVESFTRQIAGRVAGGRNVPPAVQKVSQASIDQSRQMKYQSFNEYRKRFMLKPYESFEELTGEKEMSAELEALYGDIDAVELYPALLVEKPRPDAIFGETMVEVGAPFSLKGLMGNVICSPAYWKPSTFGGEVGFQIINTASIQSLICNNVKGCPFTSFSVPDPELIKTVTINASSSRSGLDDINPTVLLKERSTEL

GABAB1A = GABAB1A (Homo sapiens, UniProt Q9UBS5); assay type: binding; conditions: 10 μM CV-8814
Cyclooxygenase COX-1 = Cyclooxygenase COX-1 (Homo sapiens, UniProt P23219); assay type: biochemical; conditions: 10 μM CV-8814
[12] = target: Serotonin (5-Hydroxytryptamine) 5-HT3 (Homo sapiens, UniProt P46098); assay type: binding; conditions: 10 μM CV-8814
PPARγ = PPARγ (Homo sapiens, UniProt P37231); assay type: binding; conditions: 10 μM CV-8814
Chain of PPARγ (P37231 whole entry): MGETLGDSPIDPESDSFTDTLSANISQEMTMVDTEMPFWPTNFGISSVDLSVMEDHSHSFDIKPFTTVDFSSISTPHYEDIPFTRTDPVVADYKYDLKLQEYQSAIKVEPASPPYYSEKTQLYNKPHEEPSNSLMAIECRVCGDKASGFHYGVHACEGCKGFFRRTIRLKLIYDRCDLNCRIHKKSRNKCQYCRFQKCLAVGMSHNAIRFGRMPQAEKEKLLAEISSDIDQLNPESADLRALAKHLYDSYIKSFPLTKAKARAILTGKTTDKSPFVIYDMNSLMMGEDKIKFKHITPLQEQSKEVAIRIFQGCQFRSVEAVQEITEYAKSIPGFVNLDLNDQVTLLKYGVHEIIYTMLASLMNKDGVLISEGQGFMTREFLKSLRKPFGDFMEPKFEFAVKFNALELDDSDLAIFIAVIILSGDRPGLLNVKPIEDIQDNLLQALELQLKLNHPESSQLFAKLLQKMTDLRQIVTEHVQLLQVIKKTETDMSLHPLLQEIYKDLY

Histamine H1 = Histamine H1 (Homo sapiens, UniProt P35367); assay type: binding; conditions: 10 μM CV-8814
Vasopressin V1A = Vasopressin V1A (Homo sapiens, UniProt P37288); assay type: binding; conditions: 10 μM CV-8814
Adrenergic α1B = Adrenergic α1B (Rattus norvegicus, UniProt P15823); assay type: binding; conditions: 10 μM CV-8814
Adenosine A1 = Adenosine A1 (Homo sapiens, UniProt P30542); assay type: binding; conditions: 10 μM CV-8814
Cannabinoid CB1 = Cannabinoid CB1 (Homo sapiens, UniProt P21554); assay type: binding; conditions: 10 μM CV-8814
Opiate μ (OP3, MOP) = Opiate μ (OP3, MOP) (Homo sapiens, UniProt P35372); assay type: binding; conditions: 10 μM CV-8814
Chain of Opiate μ (OP3, MOP) (P35372 whole entry): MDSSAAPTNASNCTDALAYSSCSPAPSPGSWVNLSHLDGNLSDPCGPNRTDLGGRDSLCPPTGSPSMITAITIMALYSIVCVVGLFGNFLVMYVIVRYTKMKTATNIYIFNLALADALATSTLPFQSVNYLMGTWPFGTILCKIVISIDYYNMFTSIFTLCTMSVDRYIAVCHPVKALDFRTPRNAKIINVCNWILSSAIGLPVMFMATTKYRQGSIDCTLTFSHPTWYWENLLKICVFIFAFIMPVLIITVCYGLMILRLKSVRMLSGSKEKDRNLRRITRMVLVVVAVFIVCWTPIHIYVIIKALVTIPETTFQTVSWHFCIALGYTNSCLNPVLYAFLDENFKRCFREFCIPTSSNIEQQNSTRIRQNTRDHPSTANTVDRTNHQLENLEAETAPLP

[13] = target: Cholecystokinin CCK2 (CCKB) (Homo sapiens, UniProt P32239); assay type: binding; conditions: 10 μM CV-8814
[14] = target: Serotonin (5-Hydroxytryptamine) 5-HT2C (Homo sapiens, UniProt P28335); assay type: binding; conditions: 10 μM CV-8814
[15] = target: Serotonin (5-Hydroxytryptamine) 5-HT2B (Homo sapiens, UniProt P41595); assay type: binding; conditions: 10 μM CV-8814
Calcium Channel N-Type = Calcium Channel N-Type (Rattus norvegicus, UniProt Q02294); assay type: binding; conditions: 10 μM CV-8814

Measured: inhibition at 10 µM

Chain of Transporter, Norepinephrine (NET) (P23975 whole entry): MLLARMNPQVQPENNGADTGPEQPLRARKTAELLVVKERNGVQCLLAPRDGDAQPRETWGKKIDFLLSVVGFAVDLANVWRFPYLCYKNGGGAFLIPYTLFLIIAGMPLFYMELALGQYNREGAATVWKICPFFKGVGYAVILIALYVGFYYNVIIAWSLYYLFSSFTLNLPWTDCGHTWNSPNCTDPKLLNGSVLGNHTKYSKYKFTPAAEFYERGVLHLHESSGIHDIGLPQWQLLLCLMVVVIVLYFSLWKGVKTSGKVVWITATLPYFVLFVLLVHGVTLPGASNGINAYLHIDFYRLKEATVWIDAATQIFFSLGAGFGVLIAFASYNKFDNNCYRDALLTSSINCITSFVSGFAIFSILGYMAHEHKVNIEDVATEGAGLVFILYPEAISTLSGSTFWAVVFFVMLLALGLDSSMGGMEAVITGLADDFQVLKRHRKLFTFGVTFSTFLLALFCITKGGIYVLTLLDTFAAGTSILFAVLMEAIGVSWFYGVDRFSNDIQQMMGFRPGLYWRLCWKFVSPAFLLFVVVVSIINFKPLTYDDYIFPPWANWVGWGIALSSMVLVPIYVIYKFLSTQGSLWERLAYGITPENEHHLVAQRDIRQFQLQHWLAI

COc1ccc(CN2CCN(CCO)CC2)c(OC)c1OC [CV-8814, 2-(4-(2,3,4-trimethoxybenzyl)piperazin-1-yl)ethan-1-01]
< 50%: all assays above
